How the values were obtained:
Assay in all cases: KINOMEscan competition binding
Conditions in all cases: compound 10.0 µM
STK4 (human) = STK4 (human) (UniProt Q13043)
STK32C (human) = STK32C (human) (UniProt Q86UX6)
PLK4 (human) = PLK4 (human) (UniProt O00444)
MARK1 (human) = MARK1 (human) (UniProt Q9P0L2)
PTK2B (human) = PTK2B (human) (UniProt Q14289)
GRK7 (human) = GRK7 (human) (UniProt Q8WTQ7)
GSK3A (human) = GSK3A (human) (UniProt P49840)
PTK2 (human) = PTK2 (human) (UniProt Q05397)
STK32A (human) = STK32A (human) (UniProt Q8WU08)
Chain of STK32A (human) (Q8WU08 whole entry, looked up): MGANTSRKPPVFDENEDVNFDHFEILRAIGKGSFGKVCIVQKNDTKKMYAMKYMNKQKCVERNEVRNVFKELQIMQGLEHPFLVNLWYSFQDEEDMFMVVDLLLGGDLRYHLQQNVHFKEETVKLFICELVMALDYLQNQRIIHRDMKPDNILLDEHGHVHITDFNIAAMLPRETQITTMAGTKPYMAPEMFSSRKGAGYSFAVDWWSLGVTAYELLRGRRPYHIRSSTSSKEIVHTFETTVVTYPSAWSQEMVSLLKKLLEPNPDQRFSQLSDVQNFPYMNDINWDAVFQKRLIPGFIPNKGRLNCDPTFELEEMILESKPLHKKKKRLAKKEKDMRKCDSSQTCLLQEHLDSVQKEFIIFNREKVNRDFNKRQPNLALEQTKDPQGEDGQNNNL

RAF1 (human) = RAF1 (human) (UniProt P04049)
[1] = target: TYK2 JH2 pseudokinase (human) (UniProt P29597)
RPS6KA2 KD2 (human) = RPS6KA2 KD2 (human) (UniProt Q15349)
NTRK2 (human) = NTRK2 (human) (UniProt Q16620)
Chain of NTRK2 (human) (Q16620 whole entry, looked up): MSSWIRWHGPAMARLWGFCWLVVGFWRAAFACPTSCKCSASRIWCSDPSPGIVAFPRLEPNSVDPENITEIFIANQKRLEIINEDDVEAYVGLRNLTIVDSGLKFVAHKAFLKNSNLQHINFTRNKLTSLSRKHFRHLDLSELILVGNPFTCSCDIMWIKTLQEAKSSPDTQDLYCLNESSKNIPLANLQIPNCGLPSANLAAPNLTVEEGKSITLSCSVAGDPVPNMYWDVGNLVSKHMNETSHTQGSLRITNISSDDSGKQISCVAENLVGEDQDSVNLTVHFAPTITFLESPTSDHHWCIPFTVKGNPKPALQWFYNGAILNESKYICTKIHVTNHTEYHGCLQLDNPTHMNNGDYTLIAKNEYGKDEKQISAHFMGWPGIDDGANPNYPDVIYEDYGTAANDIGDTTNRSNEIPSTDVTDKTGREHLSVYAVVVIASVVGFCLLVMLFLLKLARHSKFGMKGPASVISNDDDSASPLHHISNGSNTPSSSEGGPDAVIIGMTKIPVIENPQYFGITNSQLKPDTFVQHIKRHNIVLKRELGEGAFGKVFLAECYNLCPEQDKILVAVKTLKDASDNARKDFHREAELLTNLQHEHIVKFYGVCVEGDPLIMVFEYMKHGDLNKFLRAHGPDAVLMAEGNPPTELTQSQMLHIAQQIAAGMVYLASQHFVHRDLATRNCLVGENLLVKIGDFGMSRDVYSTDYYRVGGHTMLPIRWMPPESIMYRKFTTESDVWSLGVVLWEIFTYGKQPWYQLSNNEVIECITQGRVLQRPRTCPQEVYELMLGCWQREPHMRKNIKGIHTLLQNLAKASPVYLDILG

SIK3 (human) = SIK3 (human) (UniProt Q9Y2K2)
EPHB4 (human) = EPHB4 (human) (UniProt P54760)
EPHA7 (human) = EPHA7 (human) (UniProt Q15375)
ROCK1 (human) = ROCK1 (human) (UniProt Q13464)
MAP3K9 (human) = MAP3K9 (human) (UniProt P80192)
PIK3C2G (human) = PIK3C2G (human) (UniProt O75747)
MAP4K3 (human) = MAP4K3 (human) (UniProt Q8IVH8)
Chain of MAP4K3 (human) (Q8IVH8 whole entry, looked up): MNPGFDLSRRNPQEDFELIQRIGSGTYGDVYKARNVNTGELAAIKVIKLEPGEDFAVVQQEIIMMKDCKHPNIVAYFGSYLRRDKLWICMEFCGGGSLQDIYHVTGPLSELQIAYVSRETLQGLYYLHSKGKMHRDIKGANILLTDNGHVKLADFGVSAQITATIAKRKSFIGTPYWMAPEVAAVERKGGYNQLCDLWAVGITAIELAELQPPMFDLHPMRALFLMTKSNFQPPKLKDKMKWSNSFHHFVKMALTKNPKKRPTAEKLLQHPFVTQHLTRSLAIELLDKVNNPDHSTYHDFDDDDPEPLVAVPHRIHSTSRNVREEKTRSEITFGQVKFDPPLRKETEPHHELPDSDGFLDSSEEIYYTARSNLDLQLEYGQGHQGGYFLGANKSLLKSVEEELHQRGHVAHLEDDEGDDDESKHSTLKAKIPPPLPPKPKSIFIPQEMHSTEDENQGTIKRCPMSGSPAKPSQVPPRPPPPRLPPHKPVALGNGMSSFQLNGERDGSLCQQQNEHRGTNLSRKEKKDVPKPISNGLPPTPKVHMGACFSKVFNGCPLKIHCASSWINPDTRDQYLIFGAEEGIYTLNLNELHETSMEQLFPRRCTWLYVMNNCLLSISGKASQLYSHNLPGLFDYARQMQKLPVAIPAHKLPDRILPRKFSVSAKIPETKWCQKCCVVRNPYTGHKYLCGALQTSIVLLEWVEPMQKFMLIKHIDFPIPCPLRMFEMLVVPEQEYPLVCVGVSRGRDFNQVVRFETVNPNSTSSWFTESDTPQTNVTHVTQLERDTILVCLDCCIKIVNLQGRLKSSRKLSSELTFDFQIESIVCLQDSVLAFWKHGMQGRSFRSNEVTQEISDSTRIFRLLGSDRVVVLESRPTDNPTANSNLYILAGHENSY

FGFR4 (human) = FGFR4 (human) (UniProt P22455)
HIPK3 (human) = HIPK3 (human) (UniProt Q9H422)
AKT3 (human) = AKT3 (human) (UniProt Q9Y243)
AAK1 (human) = AAK1 (human) (UniProt Q2M2I8)
YES1 (human) = YES1 (human) (UniProt P07947)
Chain of YES1 (human) (P07947 whole entry, looked up): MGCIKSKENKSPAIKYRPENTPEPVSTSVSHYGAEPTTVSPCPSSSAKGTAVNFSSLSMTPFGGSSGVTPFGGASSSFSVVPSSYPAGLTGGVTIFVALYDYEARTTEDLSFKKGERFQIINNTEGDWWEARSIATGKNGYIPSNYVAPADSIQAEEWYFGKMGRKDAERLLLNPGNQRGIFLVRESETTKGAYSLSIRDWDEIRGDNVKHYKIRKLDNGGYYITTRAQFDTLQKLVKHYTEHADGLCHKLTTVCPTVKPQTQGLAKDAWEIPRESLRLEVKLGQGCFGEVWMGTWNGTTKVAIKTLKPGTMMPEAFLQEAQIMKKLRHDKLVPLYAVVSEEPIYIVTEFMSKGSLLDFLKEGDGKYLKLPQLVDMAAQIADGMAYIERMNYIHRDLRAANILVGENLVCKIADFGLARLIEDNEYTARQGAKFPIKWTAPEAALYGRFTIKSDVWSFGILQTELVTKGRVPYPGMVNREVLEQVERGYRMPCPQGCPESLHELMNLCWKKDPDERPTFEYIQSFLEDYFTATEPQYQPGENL

NTRK1 (human) = NTRK1 (human) (UniProt P04629)
NLK (human) = NLK (human) (UniProt Q9UBE8)
ABL2 (human) = ABL2 (human) (UniProt P42684)
STK32B (human) = STK32B (human) (UniProt Q9NY57)
Chain of STK32B (human) (Q9NY57 whole entry, looked up): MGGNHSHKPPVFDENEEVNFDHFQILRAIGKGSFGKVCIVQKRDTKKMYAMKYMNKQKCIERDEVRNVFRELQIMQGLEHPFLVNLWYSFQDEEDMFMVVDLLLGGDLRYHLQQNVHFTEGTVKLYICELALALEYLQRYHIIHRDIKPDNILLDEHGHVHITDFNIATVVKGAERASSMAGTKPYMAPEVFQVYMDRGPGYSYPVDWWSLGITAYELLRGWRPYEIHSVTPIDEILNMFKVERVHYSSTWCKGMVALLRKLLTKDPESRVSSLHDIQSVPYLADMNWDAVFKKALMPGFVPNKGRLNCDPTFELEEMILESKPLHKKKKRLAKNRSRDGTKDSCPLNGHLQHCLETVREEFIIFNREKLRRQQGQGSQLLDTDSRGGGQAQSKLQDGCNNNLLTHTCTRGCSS

BTK (human) = BTK (human) (UniProt Q06187)
Chain of BTK (human) (Q06187 whole entry, looked up): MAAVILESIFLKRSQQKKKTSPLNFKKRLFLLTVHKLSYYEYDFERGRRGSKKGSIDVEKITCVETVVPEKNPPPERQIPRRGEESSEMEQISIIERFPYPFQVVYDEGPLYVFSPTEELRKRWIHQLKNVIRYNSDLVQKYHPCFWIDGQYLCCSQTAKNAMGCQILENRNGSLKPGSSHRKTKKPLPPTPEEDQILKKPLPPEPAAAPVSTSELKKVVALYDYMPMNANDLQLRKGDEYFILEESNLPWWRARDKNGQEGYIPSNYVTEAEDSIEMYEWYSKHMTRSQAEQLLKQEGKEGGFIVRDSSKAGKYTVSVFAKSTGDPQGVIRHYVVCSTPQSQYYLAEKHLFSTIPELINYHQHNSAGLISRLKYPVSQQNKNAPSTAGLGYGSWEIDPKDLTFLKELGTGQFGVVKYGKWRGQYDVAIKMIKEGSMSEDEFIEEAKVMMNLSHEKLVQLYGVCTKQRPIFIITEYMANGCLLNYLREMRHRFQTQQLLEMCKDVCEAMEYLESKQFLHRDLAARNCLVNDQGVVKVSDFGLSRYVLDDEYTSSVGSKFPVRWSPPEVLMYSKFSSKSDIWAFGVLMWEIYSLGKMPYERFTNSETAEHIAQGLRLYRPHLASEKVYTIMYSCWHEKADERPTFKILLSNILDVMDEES

PIK3CG (human) = PIK3CG (human) (UniProt P48736)
SRC (human) = SRC (human) (UniProt P12931)
NUAK2 (human) = NUAK2 (human) (UniProt Q9H093)
NEK11 (human) = NEK11 (human) (UniProt Q8NG66)
SRPK3 (human) = SRPK3 (human) (UniProt Q9UPE1)
PKN3 (M.tuberculosis) = PKN3 (M.tuberculosis) (UniProt Q6P5Z2)
PKN1 (human) = PKN1 (human) (UniProt Q16512)
CLK4 (human) = CLK4 (human) (UniProt Q9HAZ1)
ULK3 (human) = ULK3 (human) (UniProt Q6PHR2)
Chain of ULK3 (human) (Q6PHR2 whole entry, looked up): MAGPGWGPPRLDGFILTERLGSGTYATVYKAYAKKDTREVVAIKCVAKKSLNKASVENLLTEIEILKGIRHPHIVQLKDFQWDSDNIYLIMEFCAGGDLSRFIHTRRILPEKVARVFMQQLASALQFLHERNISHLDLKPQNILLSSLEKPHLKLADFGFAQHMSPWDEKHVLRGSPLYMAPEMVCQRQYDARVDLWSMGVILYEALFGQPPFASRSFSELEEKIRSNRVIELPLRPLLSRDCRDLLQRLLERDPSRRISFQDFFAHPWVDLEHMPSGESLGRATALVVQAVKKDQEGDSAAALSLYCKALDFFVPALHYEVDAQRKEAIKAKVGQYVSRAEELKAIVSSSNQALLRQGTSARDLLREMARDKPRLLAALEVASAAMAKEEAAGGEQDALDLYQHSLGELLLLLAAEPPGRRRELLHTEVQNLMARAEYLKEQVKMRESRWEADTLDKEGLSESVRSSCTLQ

CAMK2D (human) = CAMK2D (human) (UniProt Q13557)

Chain of MARK1 (human) (Q9P0L2 whole entry, looked up): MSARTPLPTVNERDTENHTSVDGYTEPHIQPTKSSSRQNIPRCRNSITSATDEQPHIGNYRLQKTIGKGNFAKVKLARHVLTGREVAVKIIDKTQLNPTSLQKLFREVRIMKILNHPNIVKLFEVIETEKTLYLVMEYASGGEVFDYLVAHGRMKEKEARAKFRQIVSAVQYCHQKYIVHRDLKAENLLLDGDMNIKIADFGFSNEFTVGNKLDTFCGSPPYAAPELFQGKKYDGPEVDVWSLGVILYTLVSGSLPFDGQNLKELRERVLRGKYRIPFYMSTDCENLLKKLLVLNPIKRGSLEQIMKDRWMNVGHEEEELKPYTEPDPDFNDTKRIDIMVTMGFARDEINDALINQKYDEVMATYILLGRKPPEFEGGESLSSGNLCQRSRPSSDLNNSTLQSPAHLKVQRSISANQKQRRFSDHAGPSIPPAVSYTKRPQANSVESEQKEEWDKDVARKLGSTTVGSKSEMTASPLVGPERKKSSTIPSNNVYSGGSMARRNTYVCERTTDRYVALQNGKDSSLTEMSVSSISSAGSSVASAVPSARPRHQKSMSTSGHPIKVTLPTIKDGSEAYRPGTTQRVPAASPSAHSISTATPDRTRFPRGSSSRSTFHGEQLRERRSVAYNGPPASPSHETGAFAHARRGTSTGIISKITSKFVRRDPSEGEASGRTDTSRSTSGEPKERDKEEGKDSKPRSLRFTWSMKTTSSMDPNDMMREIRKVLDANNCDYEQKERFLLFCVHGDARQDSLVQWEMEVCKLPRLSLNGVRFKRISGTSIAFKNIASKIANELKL

Structure (SMILES) | kinase still bound, per cent of control (STK4 (human)) [%] | kinase still bound, per cent of control (STK32C (human)) [%] | kinase still bound, per cent of control (MARK1 (human)) [%] | kinase still bound, per cent of control (PTK2B (human)) [%] | kinase still bound, per cent of control (GRK7 (human)) [%] | kinase still bound, per cent of control (GSK3A (human)) [%] | kinase still bound, per cent of control (PTK2 (human)) [%] | kinase still bound, per cent of control (STK32A (human)) [%] | kinase still bound, per cent of control (RAF1 (human)) [%] | kinase still bound, per cent of control [1] [%] | kinase still bound, per cent of control (RPS6KA2 KD2 (human)) [%] | kinase still bound, per cent of control (NTRK2 (human)) [%] | kinase still bound, per cent of control (SIK3 (human)) [%] | kinase still bound, per cent of control (EPHB4 (human)) [%] | kinase still bound, per cent of control (EPHA7 (human)) [%] | kinase still bound, per cent of control (ROCK1 (human)) [%] | kinase still bound, per cent of control (MAP3K9 (human)) [%] | kinase still bound, per cent of control (PIK3C2G (human)) [%] | kinase still bound, per cent of control (MAP4K3 (human)) [%] | kinase still bound, per cent of control (FGFR4 (human)) [%] | further results
CCN1CCN(Cc2ccc(NC(=O)c3ccc(C)c(/C=C/c4cnc5[nH]ccc5c4OC)c3)cc2C(F)(F)F)CC1 | 21 | 100 | 94 | 0.75 | 77 | 100 | 67 | 100 | 0.9 | 100 | 42 | 5.2 | 100 | 2.7 | 16 | 43 | 1.4 | 82 | 14 | 0.45 | kinase still bound, per cent of control (PLK4 (human)): 59%; kinase still bound, per cent of control (HIPK3 (human)): 44%; kinase still bound, per cent of control (AKT3 (human)): 100%; kinase still bound, per cent of control (AAK1 (human)): 26%; kinase still bound, per cent of control (YES1 (human)): 0.65%; kinase still bound, per cent of control (NTRK1 (human)): 2.5%; kinase still bound, per cent of control (NLK (human)): 17%; kinase still bound, per cent of control (ABL2 (human)): 0%; kinase still bound, per cent of control (STK32B (human)): 100%; kinase still bound, per cent of control (BTK (human)): 0.3%; kinase still bound, per cent of control (PIK3CG (human)): 96%; kinase still bound, per cent of control (SRC (human)): 0.15%; kinase still bound, per cent of control (NUAK2 (human)): 95%; kinase still bound, per cent of control (NEK11 (human)): 32%; kinase still bound, per cent of control (SRPK3 (human)): 13%; kinase still bound, per cent of control (PKN3 (M.tuberculosis)): 89%; kinase still bound, per cent of control (PKN1 (human)): 16%; kinase still bound, per cent of control (CLK4 (human)): 100%; kinase still bound, per cent of control (ULK3 (human)): 1.5%; kinase still bound, per cent of control (CAMK2D (human)): 100%
C=CC(=O)Nc1ccc(C(=O)c2sc(Nc3ccc(N4CCN(C)CC4)cc3OC)nc2N)cc1 | 100 | 84 | 93 | 42 | 100 | 67 | 51 | 52 | 97 | 66 | 0.25 | 100 | 95 | 100 | 95 | 42 | 93 | 100 | 60 | 26 | kinase still bound, per cent of control (PLK4 (human)): 43%; kinase still bound, per cent of control (HIPK3 (human)): 42%; kinase still bound, per cent of control (AKT3 (human)): 73%; kinase still bound, per cent of control (AAK1 (human)): 11%; kinase still bound, per cent of control (YES1 (human)): 86%; kinase still bound, per cent of control (NTRK1 (human)): 78%; kinase still bound, per cent of control (NLK (human)): 76%; kinase still bound, per cent of control (ABL2 (human)): 100%; kinase still bound, per cent of control (STK32B (human)): 71%; kinase still bound, per cent of control (BTK (human)): 94%; kinase still bound, per cent of control (PIK3CG (human)): 96%; kinase still bound, per cent of control (SRC (human)): 100%; kinase still bound, per cent of control (NUAK2 (human)): 49%; kinase still bound, per cent of control (NEK11 (human)): 68%; kinase still bound, per cent of control (SRPK3 (human)): 54%; kinase still bound, per cent of control (PKN3 (M.tuberculosis)): 100%; kinase still bound, per cent of control (PKN1 (human)): 97%; kinase still bound, per cent of control (CLK4 (human)): 1.6%; kinase still bound, per cent of control (ULK3 (human)): 35%; kinase still bound, per cent of control (CAMK2D (human)): 2.1%
CCN(CCO)CCCOc1ccc2c(Nc3cc(CC(=O)Nc4cccc(F)c4)[nH]n3)ncnc2c1 | 40 | 78 | 98 | 100 | 54 | 100 | 64 | 100 | 100 | 98 | 77 | 8.2 | 100 | 100 | 74 | 67 | 98 | 21 | 51 | 100 | kinase still bound, per cent of control (HIPK3 (human)): 29%; kinase still bound, per cent of control (AKT3 (human)): 88%; kinase still bound, per cent of control (YES1 (human)): 42%; kinase still bound, per cent of control (NTRK1 (human)): 6.8%; kinase still bound, per cent of control (NLK (human)): 100%; kinase still bound, per cent of control (STK32B (human)): 100%; kinase still bound, per cent of control (BTK (human)): 7.2%; kinase still bound, per cent of control (PIK3CG (human)): 100%; kinase still bound, per cent of control (SRC (human)): 43%; kinase still bound, per cent of control (NUAK2 (human)): 54%; kinase still bound, per cent of control (NEK11 (human)): 98%; kinase still bound, per cent of control (SRPK3 (human)): 100%; kinase still bound, per cent of control (PKN3 (M.tuberculosis)): 50%; kinase still bound, per cent of control (PKN1 (human)): 90%; kinase still bound, per cent of control (CLK4 (human)): 36%; kinase still bound, per cent of control (ULK3 (human)): 69%; kinase still bound, per cent of control (CAMK2D (human)): 93%

From the kinase profiling compilation of Christmann-Franck et al. (2016)
